What all share (assay type): cell-based
Assay [1] deals with transient sodium currents. Briefly: IonWorks automated patch clamp, whole-cell voltage clamp. To be noted: inhibition of transient sodium currents, read-out: IW IC50. The method, then:
To determine the selectivity of effects of these compounds on the persistent current, the inhibition of transient sodium currents using an automated patch clamp was also tested for the compounds. For direct measurement of Na+ currents the IonWorks automated patch clamp system was used. The IonWorks system is a high-throughput electrophysiological instrument that performs whole-cell voltage clamp recordings in a 384-well plate format.

In assay [2] the test system is persistent sodium currents. Briefly: FLIPR sodium depletion/repletion assay (voltage-sensitive dyes). As to conditions: for IC50: 8-point concentration-response, antagonism of persistent current; for HTS % Block: single concentration HTS protocol, inhibition of the control response. The method, then: To identify compounds that block persistent sodium currents, they were tested in a sodium depletion/repletion assay in which changes in the fluorescence of voltage-sensitive dyes measured in a Fluorometric Imaging Plate Reader (FLIPR) were used to infer the effects of the compounds on persistent sodium currents. The compounds were first tested in a single concentration HTS protocol.

The test system of assay [3] is Nav1.3 or Nav1.6 channels. Briefly: gigohm-seal manual patch-clamp (MPC) in HEK cells stably transfected with sodium channels. To be noted: for block of persistent versus transient sodium currents: FIG. 1, percentage of control current at steady state, n=3; for concentration effective in blocking 50% of the persistent current: HEK cells expressing Nav1.3 or Nav1.6, FIG. 1. The method, then: Nav1.3 or Nav1.6 channels were expressed in HEK cells, currents were measured using standard MPC electrophysiological techniques. Data are summarized from at least 3 experiments for each concentration tested and were normalized to the control currents before compound addition. Data are presented as the mean and standard error of the mean (n=3) of the percentage of the control current observed at steady state after compound addition.
Therefore, the efficacy and selectivity of the identified persistent current antagonists were verified using conventional gigohm-seal manual patch-clamp (MPC).
MPC experiments were conducted on human embroynic kidney (HEK) cells stably transfected with sodium channels were plated on coverslips. Cells were patch clamped using standard patch-clamp techniques (Hamill, O. P., A. Marty, et al., 1981 Pflugers Arch. 391:85-100). Once sufficient persistent current was established, buffer was introduced into the chamber at a constant flow rate of […] until the persistent current stabilized. Subsequent concentration-response experiments were conducted using this same flow rate. After application of the compound, current amplitude was monitored until equilibrium was established. The data recorded at equilibrium was normalized to the control current measured during perfusion with control buffer in the absence of a test compound. Adequate solution perfusion and gigohm seal stability were monitored throughout the experiment. The compound's antagonism of persistent or transient sodium currents is expressed as the IC5O of block for the respective current (see Table 1). Selectivity for block of the persistent current was calculated as the ratio of the IC5O for the transient current divided by the IC5O for the persistent current.
Direct measurement of the sodium current in cells expressing either Nav1.3 or
As shown for the exemplary compounds (compound #1 in Table 1 and Compound A shown below)

For the compound `COc1ccc(OCCn2c(C(C)N3CCOCC3)nc3ccccc32)cc1` (stereo not drawn), the IC50 in assay [1] was > 30 µM; in assay [2] it was 9.81 µM. Further, the “HTS % Block” value in assay [2] came out at 92.9%.

As for `Cc1ccccc1OCCn1c(CN2CCCCC2)nc2ccccc21`, the IC50 in assay [1] is > 30 µM. For the same compound, in assay [2], the IC50 came out at 5.56 µM and the “HTS % Block” value was determined as 93.6%.

For the compound `Cc1cc(C)cc(OCCn2c(CN3CCOCC3)nc3ccccc32)c1`, in assay [1], the IC50 was > 30 µM. In assay [2], inhibition was half-maximal at 1.47 µM (IC50) and the “HTS % Block” value amounted to 92.6%.

In the case of `Cc1ccc(C)c(OCCn2c(CN3CCCCC3)nc3ccccc32)c1`, the IC50 in assay [1] worked out at 22.8 µM; in assay [2] it was 0.559 µM. The “HTS % Block” value in assay [2] worked out at 88.9%.

Regarding `Cc1ccc(OCCn2c(CN3CCCCC3)nc3ccccc32)cc1`, the results for the IC50 in assay [1] and in assay [2] were > 30 µM and 0.751 µM, respectively. Further, the “HTS % Block” value in assay [2] stood at 94.6%.

On to `c1ccc(OCCn2c(CN3CCOCC3)nc3ccccc32)cc1`, for which the IC50 in assay [1] was > 30 µM. In addition, in assay [2], the IC50 came to 7.79 µM and the “HTS % Block” value is 99.2%.

Consider `Cc1ccc(C(C)C)c(OCCn2c(CN3CCOCC3)nc3ccccc32)c1` [Compound A], for which, in assay [3], the “block of persistent versus transient sodium currents” value is on record as “effective in blocking persistent sodium currents at concentrations that did not affect transient currents” and the “concentration effective in blocking 50% of the persistent current” value is listed as “low to submicromolar”.

For `COc1cccc(OCCn2c(CN3CCCCC3)nc3ccccc32)c1`, the IC50 in assay [1] was > 30 µM. Also, in assay [2], it took 0.521 µM to reach half-maximal inhibition (IC50) and the “HTS % Block” value came out at 96.5%.

Regarding `C/C=C/c1ccc(OCCn2c(CN3CCOCC3)nc3ccccc32)c(OC)c1`, in assay [1], the half-maximal inhibitory concentration (IC50) is > 30 µM. Besides, in assay [2], the IC50 amounted to 18.2 µM and the “HTS % Block” value is listed as 75.7%.

Take `Clc1ccc(OCCn2c(CN3CCCCC3)nc3ccccc32)cc1`: in assay [1], the IC50 worked out at 27.8 µM. Also, in assay [2], the half-inhibitory concentration (IC50) was 1.46 µM and the “HTS % Block” value stood at 80.7%.

Consider `Cc1ccc(OCCn2c(CN3CCOCC3)nc3ccccc32)cc1`, for which the concentration for half-maximal inhibition (IC50) in assay [1] was > 30 µM. In assay [2], the IC50 turned out to be 6.38 µM and the “HTS % Block” value amounted to 92.3%.

For the compound `C=CCc1ccccc1OCCn1c(CN2CCOCC2)nc2ccccc21`, the IC50 in assay [1] was > 30 µM. Moreover, in assay [2], the IC50 was 1.14 µM and the “HTS % Block” value is recorded as 91.5%.

Consider `Cc1cccc(C)c1OCCn1c(CN2CCOCC2)nc2ccccc21`, for which the values for the IC50 in assay [1] and in assay [2] were > 30 µM and 0.729 µM, respectively. Also, in assay [2], the “HTS % Block” value turned out to be 95.2%.

As to `Cc1cccc(OCCn2c(CN3CCOCC3)nc3ccccc32)c1C`, in assay [1], the 50% inhibitory concentration (IC50) was > 30 µM. Moreover, in assay [2], the IC50 was found to be 3.53 µM and the “HTS % Block” value was found to be 97.3%.

`C/C=C/c1ccc(OCCn2c(C(C)N3CCCCC3)nc3ccccc32)c(OC)c1` (stereo not drawn): the concentration for half-maximal inhibition (IC50) in assay [1] was > 30 µM. In assay [2], the IC50 is > 30 µM and the “HTS % Block” value is 34.6%.

Turning to `CCc1ccc(OCCn2c(CN3CCOCC3)nc3ccccc32)cc1`, in assay [1], the IC50 came to 30 µM. Also, in assay [2], the IC50 is 3.67 µM and the “HTS % Block” value stood at 90.8%.

For `COc1ccccc1OCCn1c(CN2CCOCC2)nc2ccccc21`, the IC50 in assay [1] was > 30 µM. Further, in assay [2], the IC50 was > 30 µM and the “HTS % Block” value was found to be 70.1%.

As for `Cc1ccc(OCCn2c(CN3CCOCC3)nc3ccccc32)c(C)c1`, the IC50 in assay [1] was > 30 µM. In assay [2], the IC50 came to 4.52 µM and the “HTS % Block” value is given as 79.3%.

For `CCn1c(C(C)N2CCCCC2)nc2ccccc21` (stereo not drawn), the IC50 in assay [1] was > 30 µM. Besides, in assay [2], the IC50 stood at 16.3 µM and the “HTS % Block” value is on record as 90.6%.

With `COc1ccccc1OCCn1c(CN2CCCCC2)nc2ccccc21`, the IC50 in assay [1] was > 30 µM. Also, in assay [2], the IC50 turned out to be 0.347 µM and the “HTS % Block” value amounted to 94.8%.

As for `COc1ccc(OCCn2c(C(C)N3CCCCC3)nc3ccccc32)cc1` (stereo not drawn), in assay [1], the half-inhibitory concentration (IC50) was > 30 µM. Besides, in assay [2], the IC50 amounted to 0.95 µM and the “HTS % Block” value is 95.2%.

On to `C=CCc1ccc(OCCn2c(CN3CCOCC3)nc3ccccc32)c(OC)c1`, for which the IC50 in assay [1] is ≥ 30 µM. Further, in assay [2], half-maximal inhibition (IC50) was put at 5.12 µM and the “HTS % Block” value turned out to be 70.7%.

`Cc1ccc(OCCn2c(CN3CCCCC3)nc3ccccc32)cc1C`: the IC50 in assay [1] was 23.4 µM. In assay [2], half-maximal inhibition (IC50) required 0.589 µM and the “HTS % Block” value is 80.1%.

On to `Cc1ccccc1OCCn1c(CN2CCOCC2)nc2ccccc21`, for which the IC50 in assay [1] is > 30 µM. Moreover, in assay [2], it took 3.24 µM to reach half-maximal inhibition (IC50) and the “HTS % Block” value was found to be 92.7%.

Take `CC(C)N(C(=O)Cn1c(CN2CCCCC2)nc2ccccc21)c1ccccc1`: the 50% inhibitory concentration (IC50) in assay [1] is > 30 µM. In assay [2], the IC50 amounted to 6.35 µM and the “HTS % Block” value is listed as 84.2%.

Turning to `Cc1cccc(OCCn2c(CN3CCOCC3)nc3ccccc32)c1`, the IC50 in assay [1] is > 30 µM. Further, in assay [2], the midpoint of inhibition, the IC50, lay at 7.85 µM and the “HTS % Block” value is 86.5%.

With `COc1ccc(OCCn2c(CN3CCOCC3)nc3ccccc32)cc1`, in assay [1], the IC50 is > 30 µM. Moreover, in assay [2], the 50% inhibitory concentration (IC50) is > 30 µM and the “HTS % Block” value worked out at 57.7%.

With `Cc1ccc(C)c(OCCn2c(CN3CCOCC3)nc3ccccc32)c1`, the IC50 in assay [1] is > 30 µM; in assay [2], 2.3 µM. The “HTS % Block” value in assay [2] is 92.7%.

For `Cc1cccc(C)c1OCCn1c(CN2CCCCC2)nc2ccccc21` [Compound #1, 1-[2-(2,6-Dimethylphenoxy)ethyl]-2-piperidin-1-ylmethyl-1H-benzimidazole], the IC50 in assay [1] is > 30 µM; in assay [2], 0.066 µM. In assay [3], the “block of persistent versus transient sodium currents” value is reported as “effective in blocking persistent sodium currents at concentrations that did not affect transient currents”. Moreover, in assay [3], the “concentration effective in blocking 50% of the persistent current” value is on record as “low to submicromolar”.

With `Cc1cccc(OCCn2c(CN3CCCCC3)nc3ccccc32)c1C`, in assay [1], the IC50 was determined as 13.8 µM. Moreover, in assay [2], the IC50 stood at 0.452 µM and the “HTS % Block” value was 78.9%.

Regarding `COc1ccccc1OCCCCn1c(CN2CCCCC2)nc2ccccc21`, the values for the IC50 in assay [1] and in assay [2] were > 30 µM and 0.83 µM, respectively. In assay [2], the “HTS % Block” value was 95.5%.

With `Cc1cccc(C)c1OCCCn1c(CN2CCOCC2)nc2ccccc21`, in assay [1], the IC50 was > 30 µM. In addition, in assay [2], the IC50 is 0.852 µM and the “HTS % Block” value was 98.9%.

These data come from patent publication US20130172342A1, “BENZIMIDAZOLE DERIVATIVES AS SELECTIVE BLOCKERS OF PERSISTENT SODIUM CURRENT” (Allergan, Inc., priority 2011, published 2013).
